IC50 data for 2 compounds are collected here from paper PMC10368209, “Indolo[2,3-e]benzazocines and indolo[2,3-f]benzazonines and their copper(II) complexes as microtubule destabilizing agents” (Dalton Transactions (Cambridge, England : 2003), 2023).

Assay in all cases: In vitro cytotoxicity MTT assay
(Tetrazolium assays rely on reduction of a dye to a coloured formazan, in cell work by metabolically active cells.)

Assay [1] deals with doxorubicin-resistant Colo320 human colon adenocarcinoma cell line. In kind it is cell-based. As to conditions: 72 h incubation, MTT. From the text: (§1) Four cell lines were used in this study: the doxorubicin-sensitive Colo205 (CCL-222, ATCC, Manassas, VA, USA) human colon adenocarcinoma cell line; the doxorubicin-resistant Colo320/MDR-LRP expressing P-glycoprotein (P-gp, ABCB1) (MDR1)-LRP (CCL-220.1, ATCC) human colon adenocarcinoma cell line; the hormone-responsive MCF-7 breast cancer cell line and the normal MRC-5 human embryonal lung fibroblast cell line (CCL-171, ATCC). The human cancer cell lines were purchased from LGC Promochem (Teddington, UK), and the MRC-5 cell line is a Sigma-Aldrich (Merck KGaA, Darmstadt, Germany) product. The Colo205 and Colo320 cell lines were cultured in RPMI 1640 medium supplemented with 10% fetal bovine serum (FBS), 2 mM L-glutamine, 1 mM Na-pyruvate and 10 mM HEPES. The MCF-7 and MRC-5 cells were cultured in Eagle's Minimal Essential Medium (EMEM) containing 4.5 g L^−1 of glucose and supplemented with a non-essential amino acid mixture, a selection of vitamins and 10% FBS. All cell lines were incubated at 37 °C, 5% CO2, 95% air atmosphere. The cells were detached with Trypsin-Versene (EDTA) solution for 5 min at 37 °C.
(§2) Prior to the cytotoxicity assays 10 mM stock solutions of the tested compounds were prepared in DMSO. These stock solutions were diluted with the culture medium (EMEM or RPMI 1640), and twofold serial dilutions of the compounds were prepared in 100 μL of the appropriate medium. […] The positive control was doxorubicin (Merck), and CuCl2 was also tested. All cancer cells were treated with Trypsin-Versene (EDTA) solution. A cell density of 1 × 10^4 cells was adjusted for the colon adenocarcinoma cells in 100 μL of RPMI 1640 medium and were added to each well, except for the medium control wells. The final volume was 200 μL in the wells containing compounds and cells. The MCF-7 and MRC-5 cells were seeded overnight prior to the assay. The following day, the serial dilution of the compounds were made in separate plates and added to the cells. The culture plates were incubated at 37 °C for 72 h; and at the end of the incubation period, 20 μL of 5 mg mL^−1 3-(4,5-dimethylthiazol-2-yl)-2,5-diphenyltetrazolium bromide (MTT) solution was added to each well and incubated for 4 h at 37 °C. The plates were further incubated at 37 °C overnight following the addition of 100 μL of sodium dodecyl sulfate (SDS) solution (10% in 0.01 M HCl). The optical density (OD) was measured at 450 nm (ref. 620 nm) with a Multiscan EX ELISA reader to follow the cell growth. Inhibition of cell growth (expressed as IC50: inhibitory concentration that reduces by 50% the growth of the cells exposed to the tested compounds) was determined from the sigmoid curve, where 100 − ((ODsample − ODmedium control)/(ODcell control − ODmedium control)) × 100 values were plotted against the logarithm of compound concentrations. The sigmoidal dose–response model (comparing variable and fixed slopes) of the GraphPad Prism software[88] was used to fit the curves. The IC50 values are averages from at least 3 independent experiments.

In assay [2] the test system is Colo205 human colon adenocarcinoma cell line. The class given is cell-based. As to conditions: 72 h incubation, MTT.
Excerpt: as §1, §2

Assay [3] relates to normal human embryonal lung fibroblast cells (MRC-5). In kind it is cell-based.
Excerpt: as §1, §2

The subject of assay [4] is MCF-7 breast cancer cells. In kind it is cell-based, human. As to conditions: 72 h incubation, MTT. As for the experimental part:
The human cancer cell lines were purchased from LGC Promochem (Teddington, UK), and the MRC-5 cell line is a Sigma-Aldrich (Merck KGaA, Darmstadt, Germany) product. […] The MCF-7 and MRC-5 cells were cultured in Eagle's Minimal Essential Medium (EMEM) containing 4.5 g L^−1 of glucose and supplemented with a non-essential amino acid mixture, a selection of vitamins and 10% FBS. […] The cells were detached with Trypsin-Versene (EDTA) solution for 5 min at 37 °C.
Prior to the cytotoxicity assays 10 mM stock solutions of the tested compounds were prepared in DMSO. […] The positive control was doxorubicin (Merck), and CuCl2 was also tested. All cancer cells were treated with Trypsin-Versene (EDTA) solution. […] The final volume was 200 μL in the wells containing compounds and cells. The MCF-7 and MRC-5 cells were seeded overnight prior to the assay. The following day, the serial dilution of the compounds were made in separate plates and added to the cells. The culture plates were incubated at 37 °C for 72 h; and at the end of the incubation period, 20 μL of 5 mg mL^−1 3-(4,5-dimethylthiazol-2-yl)-2,5-diphenyltetrazolium bromide (MTT) solution was added to each well and incubated for 4 h at 37 °C. The plates were further incubated at 37 °C overnight following the addition of 100 μL of sodium dodecyl sulfate (SDS) solution (10% in 0.01 M HCl). The optical density (OD) was measured at 450 nm (ref. 620 nm) with a Multiscan EX ELISA reader to follow the cell growth. […] The sigmoidal dose–response model (comparing variable and fixed slopes) of the GraphPad Prism software[88] was used to fit the curves. The IC50 values are averages from at least 3 independent experiments.

The structures appear in SMILES notation.

Consider `COc1cccc2c1C(=O)c1c(O)c3c(c(O)c1C2=O)C[C@@](O)(C(=O)CO)C[C@@H]3O[C@H]1C[C@H](N)[C@H](O)[C@H](C)O1` [Doxorubicin, doxorubicin, reference compound], for which the 50% inhibitory concentration (IC50) (commonly the midpoint of a concentration-inhibition curve) in assay [1] (Homo sapiens, COLO 320) was determined as 3.3 ± 0.1 µM; in assay [2] (Homo sapiens, COLO 205), 0.82 ± 0.02 µM; in assay [3] (Homo sapiens, MRC5, 72 h incubation), 1.16 ± 0.11 µM; in assay [4] (Homo sapiens, MCF7), 0.21 ± 0.03 µM.
As for `[Cl][Cu][Cl]` [CuCl2, reference compound], the IC50 in assay [1] is 20 ± 2 µM; in assay [2], 33 ± 1 µM; in assay [3] (72 h incubation), 40 ± 1 µM; in assay [4], 32 ± 3 µM.
